Source: US9765092B2, “Tricyclic piperidine compounds” (ACTELION PHARMACEUTICALS LTD, priority 2013, dated 2017)

Biological target: human TPH1 (Homo sapiens (Human), UniProt P17752)
Assay: Biochemical in vitro assay using fluorescence readout (TPH1 inhibition)
Details: full length human TPH1, 40 μM L-tryptophan, 15° C., 60 minutes, fluorescence at 540 nm; mean if determined several times

Sequence of human TPH1 (P17752 whole entry): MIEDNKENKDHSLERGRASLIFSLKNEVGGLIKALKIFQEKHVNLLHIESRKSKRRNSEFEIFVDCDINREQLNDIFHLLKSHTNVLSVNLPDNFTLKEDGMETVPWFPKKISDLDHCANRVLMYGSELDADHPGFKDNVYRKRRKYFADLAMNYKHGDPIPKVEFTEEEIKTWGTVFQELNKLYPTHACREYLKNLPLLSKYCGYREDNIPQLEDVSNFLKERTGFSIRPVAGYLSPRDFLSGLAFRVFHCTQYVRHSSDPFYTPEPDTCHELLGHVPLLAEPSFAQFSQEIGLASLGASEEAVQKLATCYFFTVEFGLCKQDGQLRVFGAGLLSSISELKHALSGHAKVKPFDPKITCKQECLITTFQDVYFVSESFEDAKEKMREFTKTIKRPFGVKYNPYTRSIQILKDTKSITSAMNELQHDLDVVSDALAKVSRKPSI

Row | Compound | IC50
1 | Cc1nn2c3c(nc2s1)CCN(C(=O)COc1ccc(N2CC(F)(F)C2)nc1Cl)C3c1cnc(N(C)C)s1 (stereo not shown) [Example 1.22.8, 2-((2-Chloro-6-(3,3-difluoroazetidin-1-yl)pyridin-3-yl)oxy)-1-(5-(2-(dimethylamino)-thiazol-5-yl)-2-methyl-7,8-dihydro-[1,3,4]thiadiazolo[2′,3′:2,3]imidazo[4,5-c]pyridin-6(5H)-yl)ethanone] | 19 nM
2 | Cc1nn2c3c(nc2s1)CCN(C(=O)COc1ccc(N2CCNCC2=O)nc1Cl)C3c1ccc(Cl)cc1F (stereo not shown) [Example 1.4.35, 1-(6-chloro-5-(2-(5-(4-chloro-2-fluorophenyl)-2-methyl-7,8-dihydro-[1,3,4]thiadiazolo[2′,3′:2,3]imidazo[4,5-c]pyridin-6(5H)-yl)-2-oxoethoxy)pyridin-2-yl)piperazin-2-one] | 6 nM

Same assay, conditions: human TPH1, fluorescence readout

Row | Compound | IC50
3 | Cc1nn2c3c(nc2s1)CCN(C(=O)COc1ccc(N2CCOCC2)nc1Cl)C3c1cnc(N2CCOCC2)s1 (stereo not shown) [Example 1.7.2, 2-((2-chloro-6-morpholinopyridin-3-yl)oxy)-1-(2-methyl-5-(2-morpholinothiazol-5-yl)-7,8-dihydro-[1,3,4]thiadiazolo [2′,3′:2,3]imidazo[4,5-c]pyridin-6(5H)-yl)ethanone] | 32 nM
4 | Cc1nn2c3c(nc2s1)CCN(C(=O)COc1ccc(N2CCOCC2)nc1Cl)C3c1cnc(C(=O)N(C)C)s1 (stereo not shown) [Example 1.34.1, 5-(6-(2-((2-chloro-6-morpholinopyridin-3-yl)oxy)acetyl)-2-methyl-5,6,7,8-tetrahydro-[1,3,4]thiadiazolo[2′,3′:2,3]imidazo[4,5-c]pyridin-5-yl)-N,N-dimethylthiazole-2-carboxamide] | 6 nM
5 | Cc1nn2c3c(nc2s1)CCN(C(=O)COc1ccnc2c(F)ccc(F)c12)C3c1ccc(Cl)cc1F (stereo not shown) [Example 1.4.65, 1-(5-(4-chloro-2-fluorophenyl)-2-methyl-7,8-dihydro-[1,3,4]thiadiazolo[2′,3′:2,3]imidazo[4,5-c]pyridin-6(5H)-yl)-2-((5,8-difluoroquinolin-4-yl)oxy)ethan-1-one] | 31 nM
6 | 1-(5-(4-chloro-2-fluorophenyl)-7,8-dihydrothiazolo[2′,3′:2,3]imidazo[4,5-c]pyridin-6(5H)-yl)-2-(2-ethyl-4-fluorophenoxy)ethanone [Example 6.4.1] | 14 nM
7 | Cc1nn2c3c(nc2s1)CCN(C(=O)COc1ccc(C(=O)NC2CC2)nc1Cl)C3c1ccc(OC(F)(F)F)cc1F (stereo not shown) [Example 1.77.2, 6-chloro-N-cyclopropyl-5-(2-(5-(2-fluoro-4-(trifluoromethoxy)phenyl)-2-methyl-7,8-dihydro-[1,3,4]thiadiazolo[2′,3′:2,3]imidazo[4,5-c]pyridin-6(5H)-yl)-2-oxoethoxy)picolinamide] | 28 nM
8 | CCc1nc(NS(C)(=O)=O)ccc1OCC(=O)N1CCc2nc3sc(C(F)F)nn3c2C1c1ccc(Cl)cc1F (stereo not shown) [Example 8.1.2, N-(5-(2-(5-(4-chloro-2-fluorophenyl)-2-(difluoromethyl)-7,8-dihydro-[1,3,4]thiadiazolo[2′,3′:2,3]imidazo[4,5-c]pyridin-6(5H)-yl)-2-oxoethoxy)-6-ethylpyridin-2-yl)methanesulfonamide] | 10 nM
9 | Cc1nn2c3c(nc2s1)CCN(C(=O)COc1ccc(C(=O)N(C)C)nc1Cl)C3c1cnc(C(=O)N(C)C)s1 (stereo not shown) [Example 1.34.2, 5-(6-(2-((2-chloro-6-(dimethylcarbamoyl)pyridin-3-yl)oxy)acetyl)-2-methyl-5,6,7,8-tetrahydro-[1,3,4]thiadiazolo [2′,3′:2,3]imidazo[4,5-c]pyridin-5-yl)-N,N-dimethylthiazole-2-carboxamide] | 9 nM
10 | N#Cc1ccc(OCC(=O)N2CCc3nc4sccn4c3C2c2ncc(C3CC3)cc2F)c(Cl)n1 (stereo not shown) [Example 6.7.2, 6-chloro-5-(2-(5-(5-cyclopropyl-3-fluoropyridin-2-yl)-7,8-dihydrothiazolo[2′,3′:2,3]imidazo[4,5-c]pyridin-6(5H)-yl)-2-oxoethoxy)picolinonitrile] | 17 nM
11 | Cc1cc(Cl)ccc1OCC(=O)N1CCc2nc3sccn3c2C1c1c(C)noc1C (stereo not shown) [Example 6.5.4, 2-(4-chloro-2-methylphenoxy)-1-(5-(3,5-dimethylisoxazol-4-yl)-7,8-dihydrothiazolo[2′,3′:2,3]imidazo[4,5-c]-pyridin-6(5H)-yl)ethanone] | 27 nM
12 | Cc1nn2c3c(nc2s1)CCN(C(=O)COc1cccnc1C)C3c1ccc(C2CC2)cc1F (stereo not shown) [Example 1.6.6, 1-(5-(4-cyclopropyl-2-fluorophenyl)-2-methyl-7,8-dihydro-[1,3,4]thiadiazolo[2′,3′:2,3]imidazo[4,5-c]pyridin-6(5H)-yl)-2-((2-methylpyridin-3-yl)oxy)ethanone] | 25 nM
13 | COC1(C)CN(c2ccc(OCC(=O)N3CCc4nc5sc(C)nn5c4[C@@H]3c3ncc(C)cc3F)c(Cl)n2)C1 [Example 1.31.11, (R)-2-((2-chloro-6-(3-methoxy-3-methylazetidin-1-yl)pyridin-3-yl)oxy)-1-(5-(3-fluoro-5-methylpyridin-2-yl)-2-methyl-7,8-dihydro-[1,3,4]thiadiazolo[2′,3′:2,3]imidazo[4,5-c]pyridin-6(5H)-yl)ethanone] | 23 nM
14 | COCCOc1ccc(C2c3c(nc4sc(C)nn34)CCN2C(=O)COc2ccc(C(=O)NC3CC3)nc2Cl)c(F)c1 (stereo not shown) [Example 1.83.1, 6-chloro-N-cyclopropyl-5-(2-(5-(2-fluoro-4-(2-methoxyethoxy)phenyl)-2-methyl-7,8-dihydro-[1,3,4]thiadiazolo[2′,3′:2,3]imidazo[4,5-c]pyridin-6(5H)-yl)-2-oxoethoxy)picolinamide] | 24 nM
15 | Cc1cnc(C2c3c(nc4sc(C)nn34)CCN2C(=O)COc2ccc(-c3ncco3)nc2Cl)c(F)c1 (stereo not shown) [Example 1.31.13, 2-((2-chloro-6-(oxazol-2-yl)pyridin-3-yl)oxy)-1-(5-(3-fluoro-5-methylpyridin-2-yl)-2-methyl-7,8-dihydro-[1,3,4]thiadiazolo[2′,3′:2,3]imidazo[4,5-c]pyridin-6(5H)-yl)ethanone] | 16 nM
16 | Cc1nn2c3c(nc2s1)CCN(C(=O)COc1ccc(NS(C)(=O)=O)nc1Cl)C3c1sccc1F (stereo not shown) [Example 1.23.4, N-(6-chloro-5-(2-(5-(3-fluorothiophen-2-yl)-2-methyl-7,8-dihydro-[1,3,4]thiadiazolo[2′,3′:2,3]imidazo[4,5-c]pyridin-6(5H)-yl)-2-oxoethoxy)pyridin-2-yl)methanesulfonamide] | 7 nM
17 | Cc1cnc([C@H]2c3c(nc4sc(C)nn34)CCN2C(=O)COc2ccc(N3CCCS3(=O)=O)nc2Cl)c(F)c1 [Example 1.31.17, (R)-2-((2-chloro-6-(1,1-dioxidoisothiazolidin-2-yl)pyridin-3-yl)oxy)-1-(5-(3-fluoro-5-methylpyridin-2-yl)-2-methyl-7,8-dihydro-[1,3,4]thiadiazolo[2′,3′:2,3]imidazo[4,5-c]pyridin-6(5H)-yl)ethanone] | 8 nM
18 | CS(=O)(=O)Nc1ccc(OCC(=O)N2CCc3nc4sc(C(F)F)nn4c3[C@@H]2c2ccc(Cl)cc2F)c(Cl)n1 [Example 8.1.4] | 12 nM
19 | Cc1nn2c3c(nc2s1)CCN(C(=O)COc1ccc(C(F)(F)F)cc1Cl)C3c1sc(C(=O)N(C)C)cc1F (stereo not shown) [Example 1.24.3, 5-(6-(2-(2-chloro-4-(trifluoromethyl)phenoxy)acetyl)-2-methyl-5,6,7,8-tetrahydro-[1,3,4]thiadiazolo[2′,3′:2,3]imidazo[4,5-c]pyridin-5-yl)-4-fluoro-N,N-dimethylthiophene-2-carboxamide] | 8 nM
